In ChEMBL document CHEMBL5725520, “Benzoisothiazole compounds and methods of treating schizophrenia” (2017):

How the values were obtained:
[1] = biological target: T1, 5-hydroxytryptamine receptor 1A (Homo sapiens, UniProt P08908); test: 5-HT1A Receptor Binding Test: 1. Experimental Materials:The isotopic ligand of 5-H1A receptor […] (purchased from PE Corporation), (+)5-hydroxytryptamine (purchased from Sigma Corporation), GF/B glassfiber filter (purchased from Whatman Corporation), fat-soluble scintillation fluid: PPO and POPOP (purchased from Shanghai No. 1 Reagent Factory), toluene (purchased from Sinopharm Chemical Reagent Co., Ltd), and Tris (imported and subpackaged).Cells: HEK-293 cells stably expressing 5-HT1A receptors as obtained by gene recombination are cultured for 3-5 days in cell culture medium DMEM supplemented with 10% serum. […] Total binding tube […] 20 μL D1 Binding Buffer 20 μL Cells 160 μL Non-specific tube […] 20 μL 5-HT(10−4) 20 μL Cells 160 μL Tube with the […] 20 μL compound to be tested The compound to be tested 20 μL Cells 160 μL The components are mixed to homogeneity, and then the above tubes are transferred to water bath at 30° C. (1 h), removed into ice bath immediately, and suction filtered on Harvest (with ice cold Tris eluate for 5 times).
T1 sequence (P08908 whole entry): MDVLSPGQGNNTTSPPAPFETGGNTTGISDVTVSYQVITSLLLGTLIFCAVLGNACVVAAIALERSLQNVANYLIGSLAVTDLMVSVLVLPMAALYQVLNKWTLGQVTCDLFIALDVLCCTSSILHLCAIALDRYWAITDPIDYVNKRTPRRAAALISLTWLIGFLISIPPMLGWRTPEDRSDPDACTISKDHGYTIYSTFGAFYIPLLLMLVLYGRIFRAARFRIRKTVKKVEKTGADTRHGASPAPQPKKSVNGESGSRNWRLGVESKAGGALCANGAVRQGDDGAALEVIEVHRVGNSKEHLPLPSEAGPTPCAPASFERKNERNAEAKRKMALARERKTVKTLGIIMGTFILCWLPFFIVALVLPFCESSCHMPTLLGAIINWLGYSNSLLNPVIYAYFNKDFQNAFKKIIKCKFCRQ

[2] = Dopamine D3 Receptor Binding Test: The experiment is carried out by the method according to Journal of Pharmacology and Experimental Therapeutics 2010, 333(1): 328. With [3H]methyl-spiperone (0.3 nM) as the ligand and (+)-butaclamol (10 LM) for determining non-specific binding, binding tests are carried out on human recombinant D3 receptor (expressed in CHO cells).; type: cell-based
D(2) dopamine receptor = D(2) dopamine receptor (Homo sapiens, UniProt P14416); test: Receptor Binding Test: 1. Experimental Materials:(1) D2 receptor Cell Transfection:This experiment utilizes the plasmid vector containing the gene of D2 receptor protein for transfecting HEK293 cells by calcium phosphate transfection method.
Chain of D(2) dopamine receptor (P14416 whole entry): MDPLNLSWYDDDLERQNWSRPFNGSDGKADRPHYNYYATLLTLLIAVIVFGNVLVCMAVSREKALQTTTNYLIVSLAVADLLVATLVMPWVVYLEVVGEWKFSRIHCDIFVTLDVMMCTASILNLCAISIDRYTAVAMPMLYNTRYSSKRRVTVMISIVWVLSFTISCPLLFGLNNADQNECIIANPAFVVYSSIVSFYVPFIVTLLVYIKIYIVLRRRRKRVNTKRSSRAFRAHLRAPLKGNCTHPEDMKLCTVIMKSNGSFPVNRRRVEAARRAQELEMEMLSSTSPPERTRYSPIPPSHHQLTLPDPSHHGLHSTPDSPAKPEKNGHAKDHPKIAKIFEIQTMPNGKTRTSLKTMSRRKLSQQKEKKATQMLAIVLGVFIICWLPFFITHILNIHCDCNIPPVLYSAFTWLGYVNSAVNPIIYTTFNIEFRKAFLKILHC

Structure (SMILES) | Ki [1] [nM] | Ki [2] [nM] | Ki (D(2) dopamine receptor) [nM]
CCOC(=O)N[C@H]1CC[C@@H](CCN2CCN(c3nsc4ccccc34)CC2)CC1 | 0.97 | 0.46 | 1.97
CC(C)COC(=O)N[C@H]1CC[C@H](CCN2CCN(c3nsc4ccccc34)CC2)CC1 |  | 0.093 | 
O=C(N[C@H]1CC[C@H](CCN2CCN(c3nsc4ccccc34)CC2)CC1)Oc1ccc([N+](=O)[O-])cc1 |  | 7.12 | 12.4
O=C(N[C@H]1CC[C@H](CCN2CCN(c3nsc4ccccc34)CC2)CC1)OCc1ccccc1 | 0.79 | 0.061 | 1.6
Cc1ccccc1OC(=O)N[C@H]1CC[C@H](CCN2CCN(c3nsc4ccccc34)CC2)CC1 |  | 8.49 | 
COC(=O)N[C@H]1CC[C@@H](CCN2CCN(c3nsc4ccccc34)CC2)CC1 | 2.55 | 0.087 | 
O=C(N[C@H]1CC[C@H](CCN2CCN(c3nsc4ccccc34)CC2)CC1)Oc1ccc(Cl)cc1 |  | 11.6 | 
O=C(N[C@H]1CC[C@H](CCN2CCN(c3nsc4ccccc34)CC2)CC1)OC1CC1 | 3.95 | 1.81 | 3.26
O=C(N[C@H]1CC[C@H](CCN2CCN(c3nsc4ccccc34)CC2)CC1)Oc1ccccc1 |  | 0.74 | 
O=C(N[C@H]1CC[C@@H](CCN2CCN(c3nsc4ccccc34)CC2)CC1)OCc1ccccc1 | 2.14 | 1.03 | 0.98
COc1cccc(OC(=O)N[C@H]2CC[C@H](CCN3CCN(c4nsc5ccccc45)CC3)CC2)c1 |  | 1.05 | 
O=C(N[C@H]1CC[C@H](CCN2CCN(c3nsc4ccccc34)CC2)CC1)OC1CCCCC1 | 1.69 | 4.3 | 11.8
COC(=O)N[C@H]1CC[C@H](CCN2CCN(c3nsc4ccccc34)CC2)CC1 |  | 0.1 | 
